Data from publication PMC8876511, “Two out of Three Musketeers Fight against Cancer: Synthesis, Physicochemical, and Biological Properties of Phosphino Cu^I, Ru^II, Ir^III Complexes” (Pharmaceuticals, 2022).

Tests used:
Type in all cases: cell-based, human
A549 cells [1] = assay: Intracellular accumulation, fluorescence microscopy; details: A549, 5 μM, 24 h
Method: It has been reported that the cellular uptake efficacy of a compound is affected by many factors, such as lipophilicity. Synthesized complexes indicate blue fluorescence. Thus, their detection using fluorescence microscopy is possible. For this purpose, A549 (human lung adenocarcinoma epithelial) cells were incubated with Ir(III) complexes (5 μM) for 24 h and analyzed. Phalloidin was co-incubated with Ir(III) complexes to determine subcellular localization further.
The intracellular accumulation of the compound was assessed in the A549 cell line. Before imaging, cells were seeded on microscopic slides at a density of 1×10^5 cells and were kept at 37 °C with 5% CO2 humidified atmosphere for 24 h. After being washed with fresh medium, the cells were incubated with 5 μM solution of tested compound in cell medium for 24 h. Next, after being washed with HBSS, the cells were fixed for 10 min in 3.8% PFA and incubated with specific intracellular organelle probes: 200 nM Mito-Tracker green, 1 μg/mL Quinacrine, and 0.25 nM of PhalloidinAtto 488 (Molecular Probes, Invitrogen Life Technologies; Thermo Fisher Scientific, Waltham, MA, USA), diluted in HBSS buffer. After 30 min incubation, at 37 °C, in the dark, the cells were washed with HBSS two times, and the slide was transferred to the microscope stage and cells were visualized under a fluorescent Zeiss Axio Observer microscope. Registered images were analyzed with the Zeiss ZEN software.

MCF-7 cells = assay: MTT cytotoxicity assay, MCF-7
Method: (§1) Moreover, to investigate the activity of synthesized complexes as potential anticancer agents, their cytotoxicity toward a series of human cancer cell lines and a non-cancer cell line (HaCaT) was evaluated using the MTT assay. […] In addition, we also determined the cytotoxic activity of free ligands toward selected cancer cells. […] However, this effect depends on the cell line. […] The best values of cytotoxic activity of compounds have been obtained after 72 h of cell incubation. Additionally, synthesized complexes had high sensitivity to A549 cells, so this cell line was selected as the research subject for antitumor activity.
(§2) MCF7 cell line (human breast adenocarcinoma, morphology: epithelial-like, ATCC: HTB-22) and A549 cell line (human lung adenocarcinoma, morphology: epithelial, ATCC: CCL-185); HaCaT (human keratinocyte) were cultured in Dulbecco’s Modified Eagle’s Medium (DMEM, Corning, Poland) with phenol red, supplemented with 10% fetal bovine serum (FBS) and with 1% streptomycin/penicillin. Du-145 cell line (human prostate carcinoma); derived from metastatic site: brain was cultured in minimum essential medium (MEM, Corning) with only 10% fetal bovine serum (FBS). Cultures were incubated at 37 °C under a humidified atmosphere containing 5% CO2. Cells were passaged using a solution containing 0.05% trypsin and 0.5 mM EDTA. All media and other ingredients were purchased from ALAB, Poland.
(§3) Since most of the studied compounds are insoluble in aqueous media (Dulbecco’s Modified Eagle’s Medium or minimum essential medium (MEM, Corning), therefore, they needed to be pre-dissolved in DMSO for biological tests. DMSO concentration was kept below 1% in each tested concentration of each compound. […] In brief, 5×10^3 per well (0.2 mL) in the two first approaches, while 1×10^4 cells in the case of longer incubation time were seeded in 96-well flat-bottom microtiter plate, were incubated with the tested complexes at various ranges of concentrations. […] Various compound concentrations (dilutions in proper medium supplemented with 1% FBS) were tested in five replicates and repeated at least three times. Determined values of IC50 (concentration of a drug required to inhibit the growth of 50% of the cells) are given as mean + S.D. (Standard Deviation). IC50 values were determined, from the plots of cell viability in the presence of various concentrations of each compound by matching dose–response curves and using the Origin 9.0 software. Furthermore, post-treatment survival assessment of the treated cells was analyzed under an inverted fluorescence microscope (Olympus IC51, Japan) with an excitation filter 470/20 nm. For this, cells were stained with two versatile fluorescence dyes: fluorescein diacetate (FDA, 5 mg/mL) and propidium iodide (PI, 5 mg/mL) in standard conditions in the dark for 20 min. Before visualization, dyes were removed and cells were washed with PBS twice.

Du-145 cells = assay: MTT cytotoxicity assay, Du-145
Method: as §1, §2, §3

A549 cells [2] = assay: Annexin V-FITC/PI double staining, flow cytometry; details: A549, 50 μM, 24 h
Method: The cell death induced by selected Ir(III) and Ru(II) complexes was assessed using Annexin V-FITC/PI double staining. Based on this assay the differentiation of the following cells population was possible: viable cells (Annexin-FITC negative, PI negative), apoptotic cells (Annexin-FITC positive, PI negative), late apoptotic cells (Annexin-FITC positive and PI positive), and necrotic cells (Annexin-FITC negative, PI positive). Treatment of A549 cells with Ir(III) or Ru(II) complexes leads to a dose-dependent increase in the percentage of cells in each phase (Figure 5).
Cell death was quantified using the AnnexinV-FITC/PI double staining kit (Sigma Aldrich). The cells (1 × 10^5 per well) were cultured overnight in 12-well plates. Then, cells were treated with tested compounds for 24 h. After this time, cells were passaged, collected by centrifugation, and washed twice in Hank’s Balanced Salt Solution (HBBS). The cells were then re-suspended in 500 μL binding buffer and stained with annexin V-FITC and PI according to the manufacturer’s instructions (Sigma Aldrich). Stained A549 cells were then examined using a Guava® easyCyte™ flow cytometer equipped with a 488 nm laser. The obtained data were analyzed using InCyte software (MerckMillipore, Burlington, MA, USA).

Compound	penetration into cells (A549 cells [1])	subcellular localization (A549 cells [1])	IC50 (MCF-7 cells; 24 h)	IC50 (MCF-7 cells; 48 h)	IC50 (MCF-7 cells; 72 h)	IC50 (Du-145 cells; 24 h)	IC50 (Du-145 cells; 48 h)	IC50 (Du-145 cells; 72 h)	late apoptotic cells (upper right quadrant) (A549 cells [2])
CCN(CC)C[P+](c1ccccc1)(c1ccccc1)[Ir-3]([Cl])([Cl])[C]1(C)C(C)=C(C)C(C)=C1C [1a, Ir(η^5-Cp*)Cl2Ph2PCH2N(CH2CH3)2]	can penetrate A549 cells	signal in whole (retain within the cytoplasm) cells with relative higher intensity in the nuclei	189 ± 9 µM	184 ± 6 µM	85 ± 8 µM	90 ± 5 µM	85 ± 9 µM	19 ± 3 µM	
Ru(η^6-p-cymene)Cl2Ph2PCH2N(CH2CH3)2 [1b]	can penetrate A549 cells	localize mainly in nuclei	295 ± 12 µM	352 ± 25 µM	145 ± 15 µM	122 ± 11 µM	126 ± 12 µM	23 ± 2 µM	30%
